Our source for the EC50 values is patent US8741892B2, “Compounds” (Boehringer Ingelheim International GmbH, priority 2011, dated 2014).

The test concerns the target T1, human recombinant mGluR5 (Homo sapiens, UniProt P41594).
T1 construct: expressed in transfected cells; host or cells: HEK 293
Nature of the test: positive modulation of mGluR5, calcium based FLIPR assay. Particulars: HEK 293 cell line expressing human recombinant mGluR5; EC50 of the modulation from peak Ca fluorescence signal after glutamate at approx. 5% basal stimulation. The essentials:
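HEK 293 cells expressing human recombinant mGluR5, Calcium-4 dye-loaded in Ringer solution pH 7.4. Compound (1% DMSO final) preincubated 5 min, then glutamate at ~5% of maximal effect added; peak Ca2+ fluorescence gives EC50 by nonlinear regression, normalized to DMSO (100%) and 10 μM CDPPB (200%) controls.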

Broadly, the EC50 is the concentration giving half of the maximal effect.

T1 sequence (P41594 21-1212): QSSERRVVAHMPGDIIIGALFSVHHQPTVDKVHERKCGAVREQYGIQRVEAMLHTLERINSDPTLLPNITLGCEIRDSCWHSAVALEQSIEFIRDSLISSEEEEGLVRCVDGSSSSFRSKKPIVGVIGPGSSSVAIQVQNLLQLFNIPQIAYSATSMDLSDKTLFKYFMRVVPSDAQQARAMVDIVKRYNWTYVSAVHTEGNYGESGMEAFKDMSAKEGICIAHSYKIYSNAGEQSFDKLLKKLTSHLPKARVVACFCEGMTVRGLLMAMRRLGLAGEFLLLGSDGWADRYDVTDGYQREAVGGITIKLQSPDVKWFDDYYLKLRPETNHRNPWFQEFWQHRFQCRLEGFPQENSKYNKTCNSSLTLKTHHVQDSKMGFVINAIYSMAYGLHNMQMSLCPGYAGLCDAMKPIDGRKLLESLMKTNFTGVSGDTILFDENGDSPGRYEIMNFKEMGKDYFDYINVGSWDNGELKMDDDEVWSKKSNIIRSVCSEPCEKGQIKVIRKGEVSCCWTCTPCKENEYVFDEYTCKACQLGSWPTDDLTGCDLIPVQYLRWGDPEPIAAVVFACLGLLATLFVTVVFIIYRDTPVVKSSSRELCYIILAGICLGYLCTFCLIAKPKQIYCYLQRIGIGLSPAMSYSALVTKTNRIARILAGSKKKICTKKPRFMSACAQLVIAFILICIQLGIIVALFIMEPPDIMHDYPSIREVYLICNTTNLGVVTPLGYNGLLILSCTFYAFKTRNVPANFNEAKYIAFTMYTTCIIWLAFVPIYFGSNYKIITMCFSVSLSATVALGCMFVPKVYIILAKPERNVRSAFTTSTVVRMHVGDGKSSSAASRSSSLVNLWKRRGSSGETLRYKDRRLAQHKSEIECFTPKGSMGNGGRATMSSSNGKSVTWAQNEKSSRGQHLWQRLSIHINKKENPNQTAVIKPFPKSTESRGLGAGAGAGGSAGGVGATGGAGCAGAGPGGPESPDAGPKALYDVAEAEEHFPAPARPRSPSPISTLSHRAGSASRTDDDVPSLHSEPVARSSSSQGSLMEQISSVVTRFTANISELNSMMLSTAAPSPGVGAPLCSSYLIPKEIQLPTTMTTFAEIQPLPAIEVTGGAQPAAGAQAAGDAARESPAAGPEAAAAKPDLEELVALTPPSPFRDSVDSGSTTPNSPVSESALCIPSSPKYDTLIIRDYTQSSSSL

Take `CCc1cc(-c2cccc(C#N)c2)nn1CC(=O)N1CCN(c2nnc(C)o2)CC1` [Example 7.02.187]: the EC50 amounted to 1610 nM. Turning to `Cc1cnc(C2=CCN(C(=O)Cn3nc(-c4cccc(C#N)c4)cc3-c3ccccc3)CC2)o1` [Example 7.02.188], the EC50 came out at 19 nM. Consider `Cc1nc2c(s1)CCN(C(=O)Cn1nc(-c3cccc(C#N)c3)cc1-c1ccccc1)CC2` [Example 7.02.189], for which the EC50 came out at 15 nM. Then `N#Cc1cccc(-c2cc(-c3ccccc3)n(CC(=O)N3CCc4nc(N)sc4CC3)n2)c1` [Example 7.02.190], with 29 nM; and `Cc1nc2c(s1)CN(C(=O)Cn1nc(-c3cccc(C#N)c3)cc1-c1ccccc1)C2` [Example 7.02.191], with 80 nM. For the compound `Cc1nnc(N2CCN(C(=O)Cn3nc(-c4cccc(C#N)c4)cc3-c3ccccc3)CC2)o1` [Example 7.02.192], the concentration for a half-maximal effect (EC50) turned out to be 82 nM. To `Cc1nnc(C2CCN(C(=O)Cn3nc(-c4cccc(C#N)c4)cc3-c3ccccc3)CC2)o1` [Example 7.02.193] belongs 290 nM; to `Cc1cnc(C2CCN(C(=O)Cn3nc(-c4cccc(C#N)c4)cc3-c3ccccc3)CC2)o1` [Example 7.02.194], 63 nM; to `Cc1nc(N2CCN(C(=O)Cn3nc(-c4ccc(F)c(C)c4)cc3-c3ccccc3)CC2)no1` [Example 7.02.195], 2 nM.

Regarding `CCc1cc(-c2ccc(F)c(C)c2)nn1CC(=O)N1CCN(c2noc(C)n2)CC1` [Example 7.02.196], the EC50 came out at 43 nM.

In the case of `Cc1cccc(-c2cc(-c3ccccc3)n(CC(=O)N3CCC(c4nnc(C)o4)CC3)n2)c1` [Example 7.02.197], the EC50 was 90 nM. To `Cc1cccc(-c2cc(-c3ccccc3)n(CC(=O)N3CCc4nc(C)sc4CC3)n2)c1` [Example 7.02.198] belongs 6 nM; to `Cc1cccc(-c2cc(-c3ccccc3)n(CC(=O)N3CCc4nc(N)sc4CC3)n2)c1` [Example 7.02.199], 16 nM. To `Cc1cccc(-c2cc(-c3ccccc3)n(CC(=O)N3Cc4nc(C)sc4C3)n2)c1` [Example 7.02.200] belongs 24 nM. In the case of `COc1cc(C2CCN(C(=O)Cn3nc(-c4cccc(C)c4)cc3-c3ccccc3)CC2)ncn1` [Example 7.02.201], the EC50 worked out at 171 nM.

As for `COc1cc(C2=CCN(C(=O)Cn3nc(-c4cccc(C)c4)cc3-c3ccccc3)CC2)ncn1` [Example 7.02.202], the EC50 turned out to be 19 nM. Regarding `COc1cnc(C2CCN(C(=O)Cn3nc(-c4cccc(C)c4)cc3-c3ccccc3)CC2)nc1` [Example 7.02.203], the half-maximal effective concentration (EC50) worked out at 178 nM. To `COc1cnc(C2=CCN(C(=O)Cn3nc(-c4cccc(C)c4)cc3-c3ccccc3)CC2)nc1` [Example 7.02.204] belongs 47 nM. With `CCc1cc(-c2ccc(F)c(C)c2)nn1CC(=O)N1CC=C(c2ncc(C)o2)CC1` [Example 7.02.205], the EC50 came to 18 nM.

With `CCCc1cc(-c2ccc(F)c(C)c2)nn1CC(=O)N1CC=C(c2ncc(C)o2)CC1` [Example 7.02.206], the EC50 was determined as 6 nM. For `CCc1cc(-c2ccc(F)c(C)c2)nn1CC(=O)N1CCC(c2ncc(C)o2)CC1` [Example 7.02.207], the EC50 came out at 70 nM. For the compound `CCCc1cc(-c2ccc(F)c(C)c2)nn1CC(=O)N1CCC(c2ncc(C)o2)CC1` [Example 7.02.208], the EC50 is 36 nM. `CCCc1cc(-c2ccc(F)c(C)c2)nn1CC(=O)N1CCN(c2nnc(C)o2)CC1` [Example 7.02.209]: the concentration for a half-maximal effect (EC50) is 61 nM. With `CCCc1cc(-c2ccc(F)c(C)c2)nn1CC(=O)N1CCC(c2nnc(C)o2)CC1` [Example 7.02.210], the EC50 stood at 145 nM. `CCCc1cc(-c2ccc(F)c(C)c2)nn1CC(=O)N1CCN(c2noc(C)n2)CC1` [Example 7.02.211]: the EC50 is 13 nM. Then `Cc1nc2c(o1)CN(C(=O)Cn1nc(-c3ccc(F)c(C)c3)cc1-c1ccccc1)C2` [Example 7.02.212], with 3 nM; and `CCc1cc(-c2ccc(F)c(C)c2)nn1CC(=O)N1Cc2nc(C)oc2C1` [Example 7.02.213], with 26 nM; and `CCCc1cc(-c2ccc(F)c(C)c2)nn1CC(=O)N1Cc2nc(C)oc2C1` [Example 7.02.214], with 11 nM. Consider `CCCc1cc(-c2ccc(F)c(C)c2)nn1CC(=O)N1CCc2nc(C)oc2CC1` [Example 7.02.215], for which the concentration giving a half-maximal response (EC50) is 9 nM.

With `Cc1cc(-c2cc(-c3ccccc3)n(CC(=O)N3CCN(c4nccs4)CC3)n2)ccc1F` [Example 7.02.216], the concentration giving a half-maximal response (EC50) was 6 nM. To `CCc1cc(-c2ccc(F)c(C)c2)nn1CC(=O)N1CCN(c2nccs2)CC1` [Example 7.02.217] belongs 56 nM; to `CCc1nnc(C2CCN(C(=O)Cn3nc(-c4ccc(F)c(C)c4)cc3-c3ccccc3)CC2)o1` [Example 7.02.218], 54 nM; to `CCc1nnc(C2CCN(C(=O)Cn3nc(-c4ccc(F)c(C)c4)cc3CC)CC2)o1` [Example 7.02.219], 209 nM. On to `CCc1cc(-c2ccc(F)c(C)c2)nn1CC(=O)N1CCN(c2nnc(C)o2)CC1` [Example 7.02.220], for which the EC50 turned out to be 290 nM. Then `Cc1nc2c(s1)CCN(C(=O)Cn1nc(-c3ccc(OC(F)F)cc3)cc1-c1ccccc1)CC2` [Example 7.02.221], with 4 nM; and `Cc1nc2c(s1)CN(C(=O)Cn1nc(-c3ccc(OC(F)F)cc3)cc1-c1ccccc1)C2` [Example 7.02.222], with 23 nM; and `Cc1nc2c(o1)CN(C(=O)Cn1nc(-c3ccc(OC(F)F)cc3)cc1-c1ccccc1)C2` [Example 7.02.223], with 13 nM. Then `Cc1nc(N2CCN(C(=O)Cn3nc(-c4ccc(OC(F)F)cc4)cc3-c3ccccc3)CC2)no1` [Example 7.02.224], with 2 nM; and `Cc1nnc(N2CCN(C(=O)Cn3nc(-c4ccc(OC(F)F)cc4)cc3-c3ccccc3)CC2)o1` [Example 7.02.225], with 17 nM; and `Cc1cnc(N2CCN(C(=O)Cn3nc(-c4ccc(OC(F)F)cc4)cc3-c3ccccc3)CC2)o1` [Example 7.02.226], with 11 nM. As to `COCc1nnc(C2CCN(C(=O)Cn3nc(-c4ccc(F)c(C)c4)cc3-c3ccccc3)CC2)o1` [Example 7.02.227], the EC50 was determined as 35 nM. Turning to `CCc1cc(-c2ccc(F)c(C)c2)nn1CC(=O)N1CCC(c2nnc(COC)o2)CC1` [Example 7.02.228], the EC50 amounted to 398 nM. Consider `Cc1cc(-c2cc(-c3ccccc3)n(CC(=O)N3Cc4cccnc4C3)n2)ccc1F` [Example 7.02.229], for which the EC50 turned out to be 31 nM. To `CCc1cc(-c2ccc(F)c(C)c2)nn1CC(=O)N1Cc2cccnc2C1` [Example 7.02.230] belongs 878 nM; to `Cc1nc2n(n1)CCN(C(=O)Cn1nc(-c3ccc(F)c(C)c3)cc1-c1ccccc1)CC2` [Example 7.02.231], 19 nM; to `COc1ccc(-c2cc(-c3ccccc3)n(CC(=O)N3CCN(c4noc(C)n4)CC3)n2)cc1C` [Example 7.02.232], 104 nM. Then `COc1ccc(-c2cc(-c3ccccc3)n(CC(=O)N3Cc4nc(C)sc4C3)n2)cc1C` [Example 7.02.233], with 280 nM; and `Cc1nnc(N2CCN(C(=O)Cn3nc(-c4ccc(OC(F)F)cn4)cc3-c3ccccc3)CC2)o1` [Example 7.02.234], with 200 nM. `Cc1nc(N2CCN(C(=O)Cn3nc(-c4ccc(OC(F)F)cn4)cc3-c3ccccc3)CC2)no1` [Example 7.02.235]: the EC50 was found to be 30 nM. To `Cc1nc2c(s1)CCN(C(=O)Cn1nc(-c3ccc(OC(F)F)cn3)cc1-c1ccccc1)CC2` [Example 7.02.236] belongs 69 nM.

With `Cc1nc2c(s1)CN(C(=O)Cn1nc(-c3ccc(OC(F)F)cn3)cc1-c1ccccc1)C2` [Example 7.02.237], the EC50 turned out to be 111 nM.

With `CCc1cc(-c2ccc(C)c(F)c2)nn1CC(=O)N1CCc2nc(C)sc2CC1` [Example 7.02.238], the EC50 came out at 146 nM.

As to `CCc1cc(-c2ccc(C)c(F)c2)nn1CC(=O)N1Cc2nc(C)sc2C1` [Example 7.02.239], the EC50 came out at 842 nM. As for `COc1ccc(-c2cc(-c3ccccc3)n(CC(=O)N3CCc4nc(C)sc4CC3)n2)cc1C` [Example 7.02.240], the EC50 is 85 nM.

Take `COc1ccc(-c2cc(-c3ccccc3)n(CC(=O)N3CCc4nc(C)sc4CC3)n2)cc1C` [Example 7.02.241]: the EC50 came to 76 nM. Turning to `Cc1cc(-c2cc(-c3ccccc3)n(CC(=O)N3CCN(C(=O)Oc4ccccc4)CC3)n2)ccc1F` [Example 7.02.242], the EC50 was determined as 45 nM. To `Cc1nc2c(o1)CN(C(=O)Cn1nc(-c3ccc(OC(F)F)cn3)cc1-c1ccccc1)C2` [Example 7.02.244] belongs 48 nM; to `CCc1cc(-c2ccc(C)c(F)c2)nn1CC(=O)N1Cc2nc(C)oc2C1` [Example 7.02.245], 236 nM. To `COc1ccc(-c2cc(-c3ccccc3)n(CC(=O)N3Cc4nc(C)oc4C3)n2)cc1C` [Example 7.02.246] belongs 62 nM. To `CCCc1cc(-c2ccc(F)c(C)n2)nn1CC(=O)N1CCc2nc(C)sc2CC1` [Example 7.02.247] belongs 172 nM; to `CCCc1cc(-c2ccc(F)c(C)n2)nn1CC(=O)N1Cc2nc(C)sc2C1` [Example 7.02.248], 290 nM. Turning to `CCCc1cc(-c2ccc(F)c(C)n2)nn1CC(=O)N1Cc2nc(C)oc2C1` [Example 7.02.249], the EC50 was 184 nM. Then `Cc1nnc(N2CCN(C(=O)Cn3nc(-c4ccc(C)c(F)c4)cc3-c3ccccc3)CC2)o1` [Example 7.02.250], with 65 nM.

Regarding `Cc1nc2c(s1)CCN(C(=O)Cn1nc(-c3ccc(C)c(F)c3)cc1-c1ccccc1)CC2` [Example 7.02.251], the EC50 turned out to be 34 nM.

For the compound `Cc1nc2c(s1)CN(C(=O)Cn1nc(-c3ccc(C)c(F)c3)cc1-c1ccccc1)C2` [Example 7.02.252], the half-maximal effective concentration (EC50) was found to be 69 nM.

As to `Cc1nc2c(o1)CN(C(=O)Cn1nc(-c3ccc(C)c(F)c3)cc1-c1ccccc1)C2` [Example 7.02.253], the EC50 was 41 nM.
